Test systems include UO-31; PC-3; SK-MEL-5; OVCAR-4; MCF7; SR; U-251; A549; HCT-116; RXF 393; RPMI-8226; SW-620; SK-OV-3; SK-MEL-28; COLO 205; HCT-15; A498; HOP-92; 786-0; OVCAR-5.
Common to all, as to assay: growth of human tumour cells (NCI), 48 h

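Test compounds were applied to cells in 96-well plates for 48 hours at 5 doses. At the GI50, growth is halved.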 The source made the active and inactive calls. Rule as the data show it: active = GI50 up to about 1.1 µM and inactive = higher. Some results are limits rather than exact numbers.

As for `Clc1ccc(C2=NN=C3C(c4ccccc4)=Nc4ccccc4N3C2)cc1`, the GI50 with UO-31 is 3.72 µM (inactive); in the assay with PC-3, 8.61 µM (inactive); in the assay on SK-MEL-5 it was 3.27 µM (inactive); with OVCAR-4, 2.01 µM (inactive); in the assay on MCF7, 4.4 µM (inactive); in the assay on SR, 1.08 µM (active). The GI50 in the assay on U-251 is 5.46 µM (inactive); with A549 it was 13.5 µM (inactive); with HCT-116, 4.17 µM (inactive); with RXF 393, 1.48 µM (inactive); with RPMI-8226, 2.63 µM (inactive); with SW-620, 5.45 µM (inactive). Besides, the GI50 with SK-OV-3 is > 74.8 µM (inactive); with SK-MEL-28, 37.5 µM (inactive); in the assay with COLO 205, 5.68 µM (inactive); in the assay with HCT-15 it was 4.73 µM; with A498 it was 56.1 µM (inactive); in the assay on HOP-92 it was > 25.1 µM (inactive). In addition, the GI50 with 786-0 was 5.28 µM (inactive).
With `c1ccc2cc(CNCCOCCOCCNCc3ccc4ccccc4c3)ccc2c1`, the GI50 in the assay on PC-3 was 2.17 µM (inactive); in the assay on SK-MEL-5 it was 2.39 µM (inactive); in the assay on OVCAR-4, 2.47 µM (inactive); in the assay with MCF7, 1.79 µM (inactive); in the assay on SR, 1.26 µM (inactive); in the assay on U-251 it was 1.97 µM (inactive). Further, the GI50 with A549 was 1.74 µM (inactive); in the assay with HCT-116 it was 1.58 µM (inactive); in the assay with RXF 393, 1.78 µM (inactive); in the assay on RPMI-8226 it was 1.19 µM (inactive); with SW-620, 1.91 µM (inactive); in the assay on SK-OV-3, 3.13 µM (inactive). Further, the GI50 in the assay with SK-MEL-28 is 1.97 µM (inactive); with COLO 205, 1.48 µM (inactive); with HCT-15, 1.94 µM; in the assay on OVCAR-5 it was 1.9 µM (inactive); in the assay on A498 it was 1.71 µM (inactive); in the assay with HOP-92, 1.52 µM (inactive). Further, the GI50 in the assay on 786-0 was 1.57 µM (inactive).
Turning to `C#CCOC(=O)C(N)CCSC` (stereo not drawn), the GI50 with UO-31, in the assay with PC-3, in the assay with SK-MEL-5, in the assay with MCF7, with SR and with U-251 was > 100 µM (inactive) throughout. Besides, the GI50 with A549, with HCT-116, with RXF 393, in the assay on RPMI-8226, in the assay on SW-620 and in the assay with SK-OV-3 was > 100 µM (inactive) throughout. The GI50 in the assay on SK-MEL-28, in the assay with COLO 205, with OVCAR-5, in the assay on A498, in the assay with HOP-92 and in the assay with 786-0 was > 100 µM (inactive) each time.
`CCCCc1ccc(Nc2ncc3ncn(COCCO)c3n2)cc1`: the GI50 is 21.1 µM (inactive) in the assay on UO-31; 27 µM (inactive) in the assay on PC-3; 21.8 µM (inactive) in the assay with SK-MEL-5; 41.1 µM (inactive) with OVCAR-4; 28.5 µM (inactive) with MCF7; 17.1 µM (inactive) in the assay with SR. Besides, the GI50 was 39.4 µM (inactive) in the assay with U-251; 37.2 µM (inactive) with A549; 21 µM (inactive) in the assay with HCT-116; 26.8 µM (inactive) in the assay on RXF 393; 16.4 µM (inactive) with RPMI-8226; 47.9 µM (inactive) in the assay on SW-620. The GI50 with SK-OV-3 is 79.8 µM (inactive); in the assay with COLO 205, 36.1 µM (inactive); in the assay with HCT-15, 34.9 µM; in the assay on OVCAR-5, 32.7 µM (inactive); with A498, 46.6 µM (inactive); in the assay with HOP-92, 25.8 µM (inactive). For the same compound, in the assay with 786-0, the GI50 was 26.6 µM (inactive).
Regarding `CCOC1OC(CO[Si](C)(C)C(C)(C)C)C(O)CC1n1ccc(=O)[nH]c1=O` (stereo not drawn), the GI50 in the assay on UO-31 was > 100 µM (inactive); with PC-3, 64.7 µM (inactive); with SK-MEL-5, 59.2 µM (inactive); with OVCAR-4, > 100 µM (inactive); in the assay on MCF7, 31.5 µM (inactive); in the assay on SR, 42.6 µM (inactive). Moreover, the GI50 in the assay with U-251 is > 100 µM (inactive); in the assay with A549, 51.5 µM (inactive); in the assay on HCT-116 it was 17.1 µM (inactive); in the assay with RXF 393 it was 30.8 µM (inactive); in the assay on RPMI-8226, 49.8 µM (inactive); with SW-620, 23.2 µM (inactive). The GI50 in the assay on SK-MEL-28 was 61.4 µM (inactive); in the assay with COLO 205 it was 80.5 µM (inactive); in the assay with HCT-15, 35.6 µM; in the assay on OVCAR-5, > 100 µM (inactive); in the assay on A498, > 100 µM (inactive); with HOP-92, 85.7 µM (inactive). For the same compound, in the assay with 786-0, the GI50 was 78.3 µM (inactive).
In the case of `Cc1cc2c(cc1C)C(=O)/C(=C/c1ccccc1C(=O)O)C2`, the GI50 is 50.6 µM (inactive) with UO-31; 33.9 µM (inactive) in the assay with PC-3; 47.6 µM (inactive) in the assay on SK-MEL-5; 35 µM (inactive) in the assay on OVCAR-4; 50 µM (inactive) in the assay with MCF7; 21.2 µM (inactive) with SR. For the same compound, the GI50 with U-251 is 22.9 µM (inactive); in the assay on A549, 67.5 µM (inactive); in the assay with HCT-116, 37.9 µM (inactive); in the assay with RXF 393 it was > 100 µM (inactive); in the assay with RPMI-8226, 24.3 µM (inactive); in the assay with SW-620, 46.8 µM (inactive). The GI50 is 64.4 µM (inactive) in the assay on SK-MEL-28; 19.5 µM (inactive) with COLO 205; 36.6 µM in the assay on HCT-15; 23.6 µM (inactive) in the assay with OVCAR-5; 31.8 µM (inactive) with A498; 33.3 µM (inactive) in the assay with HOP-92. Also, in the assay with 786-0, the GI50 is 40.3 µM (inactive).
In the case of `COC(=O)c1ccc2c(c1)CC1(C2)Cc2cc3c(cc2C1)CCC3`, the GI50 with UO-31, with PC-3, with SK-MEL-5, in the assay with OVCAR-4, with MCF7 and in the assay with SR was > 100 µM (inactive) each time. Also, the GI50 in the assay with U-251 was 49.3 µM (inactive); in the assay with A549 it was > 100 µM (inactive); with HCT-116, > 100 µM (inactive); in the assay with RXF 393, > 100 µM (inactive); in the assay with RPMI-8226, > 100 µM (inactive); in the assay on SW-620, > 100 µM (inactive). Also, the GI50 was > 100 µM (inactive) in the assay with SK-OV-3; > 100 µM (inactive) in the assay with SK-MEL-28; above 100 µM in the assay with HCT-15; > 100 µM (inactive) in the assay on OVCAR-5; > 100 µM (inactive) in the assay on A498; > 100 µM (inactive) in the assay on HOP-92. For the same compound, the GI50 with 786-0 was > 100 µM (inactive).
As for `CC1CC2OC(=O)C(C)C2CC2(C)C(OC3OC(CO)C(O)C(O)C3O)OCCC12` (stereo not drawn), the GI50 with PC-3, in the assay on SK-MEL-5, in the assay on OVCAR-4, in the assay on MCF7, with SR and in the assay on U-251 was > 100 µM (inactive) throughout. Moreover, the GI50 with A549, with HCT-116, in the assay with RXF 393, in the assay on RPMI-8226, in the assay with SW-620 and in the assay with SK-OV-3 was > 100 µM (inactive) each time. Further, the GI50 in the assay with SK-MEL-28 is > 100 µM (inactive); in the assay on COLO 205 it was > 100 µM (inactive); in the assay on HCT-15, above 100 µM; in the assay on OVCAR-5, > 100 µM (inactive); in the assay with A498, > 100 µM (inactive); in the assay on HOP-92 it was > 100 µM (inactive). Also, in the assay on 786-0, the GI50 is > 100 µM (inactive).
For `CCN(CC)Cc1ccc(Nc2c3ccccc3nc3ccccc23)cc1`, the GI50 is 1.9 µM (inactive) in the assay with UO-31; 1.59 µM (inactive) in the assay with PC-3; 1.71 µM (inactive) with SK-MEL-5; 2.57 µM (inactive) in the assay on OVCAR-4; 1.71 µM (inactive) with MCF7; 2.17 µM (inactive) with SR. In addition, the GI50 was 2.16 µM (inactive) with U-251; 1.28 µM (inactive) in the assay with A549; 1.16 µM (inactive) in the assay on HCT-116; 1.72 µM (inactive) in the assay on RXF 393; 1.64 µM (inactive) in the assay with SW-620; 2 µM (inactive) in the assay on SK-OV-3. The GI50 in the assay with SK-MEL-28 is 1.61 µM (inactive); in the assay on COLO 205, 1.71 µM (inactive); in the assay on HCT-15, 1 µM; with OVCAR-5, 2.17 µM (inactive); in the assay with A498, 3.09 µM (inactive); in the assay with HOP-92, 2.79 µM (inactive). Further, the GI50 in the assay on 786-0 was 1.67 µM (inactive).
For `COc1ccc(Oc2cccc(C3C4C(=O)N(c5ccc(C)c(Cl)c5)C(=O)C4ON3C(C(N)=O)c3ccccc3)c2)cc1` (stereo not drawn), the GI50 in the assay on UO-31 was 29.6 µM (inactive); in the assay on PC-3 it was 18.9 µM (inactive); in the assay with SK-MEL-5, 9.55 µM (inactive); in the assay with OVCAR-4, 18.9 µM (inactive); in the assay with MCF7, 15.3 µM (inactive); with SR, 9.98 µM (inactive). Also, the GI50 with U-251 was 16.6 µM (inactive); in the assay with A549 it was 20.9 µM (inactive); in the assay on HCT-116, 14 µM (inactive); in the assay on RXF 393, 7.6 µM (inactive); in the assay with SW-620, 20.9 µM (inactive); in the assay on SK-OV-3 it was > 50 µM (inactive). The GI50 in the assay on SK-MEL-28 is 41.5 µM (inactive); with COLO 205, 15.1 µM (inactive); in the assay on HCT-15, 8.39 µM; in the assay on OVCAR-5, 17.7 µM (inactive); in the assay on A498, 38.5 µM (inactive); in the assay with HOP-92, 24 µM (inactive). Moreover, the GI50 with 786-0 was 16.1 µM (inactive).
`O=C(c1ccccc1)c1c(C(F)(F)F)[n+]([O-])c2ccccc2[n+]1[O-]`: the GI50 was 0.879 µM (active) with UO-31; 0.29 µM (active) in the assay with PC-3; 1.87 µM (inactive) in the assay on SK-MEL-5; 0.302 µM (active) in the assay with OVCAR-4; 0.652 µM (active) in the assay with MCF7; 0.0738 µM (active) with SR. Also, the GI50 in the assay on U-251 is 1.16 µM (inactive); with A549 it was 0.634 µM (active); in the assay on HCT-116 it was 0.977 µM (active); in the assay with RXF 393, 1.46 µM (inactive); with RPMI-8226, 0.237 µM (active); in the assay with SW-620, 1.48 µM (inactive). Also, the GI50 in the assay on SK-MEL-28 is 1.91 µM (inactive); in the assay on COLO 205 it was 1.18 µM (inactive); in the assay with HCT-15 it was 0.785 µM; with OVCAR-5, 1.31 µM (inactive); with A498 it was 2.19 µM (inactive); in the assay with HOP-92, 0.207 µM (active). The GI50 with 786-0 was 1.92 µM (inactive).

Values taken from ChEMBL document CHEMBL1201862, “PubChem BioAssay data set” (2004).
